The values below come from patent US11912701B2, “Protein kinase inhibitors for promoting liver regeneration or reducing or preventing hepatocyte death” (HEPAREGENIX GMBH, priority 2018, dated 2024).

Holding throughout (assay type): biochemical
For one experiment, the target named is T1, MKK4 (Homo sapiens, UniProt P45985).
T1 construct: purchased ProQinase GmbH, Freiburg, Germany (33PanQinase Assay Service)
T1 sequence (P45985 1-399): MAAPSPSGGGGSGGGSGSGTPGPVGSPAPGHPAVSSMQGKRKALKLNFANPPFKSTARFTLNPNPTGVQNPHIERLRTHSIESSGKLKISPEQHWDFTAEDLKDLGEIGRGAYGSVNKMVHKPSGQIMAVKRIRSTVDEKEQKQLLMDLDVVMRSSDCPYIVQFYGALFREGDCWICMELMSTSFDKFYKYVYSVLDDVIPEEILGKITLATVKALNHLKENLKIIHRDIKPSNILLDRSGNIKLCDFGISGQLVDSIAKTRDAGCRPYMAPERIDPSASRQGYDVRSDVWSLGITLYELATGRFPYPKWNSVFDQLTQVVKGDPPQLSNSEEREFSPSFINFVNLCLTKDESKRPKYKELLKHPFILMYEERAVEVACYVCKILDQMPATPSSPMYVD
Kind of experiment: 33PanQinase enzyme assay, MKK4. As to conditions: assay 'IC50'; read-out: Potency MKK4 (IC50). The gist of the method: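 Inhibition measured as 33Pi transfer to substrate after a 60-min, 30 °C reaction, acid-stopped and scintillation-counted.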

In a further experiment the target is T2, BRaf (Homo sapiens, UniProt P15056).
T2 construct: purchased ProQinase GmbH, Freiburg, Germany (33PanQinase Assay Service)
T2 sequence (P15056 whole entry, species assumed): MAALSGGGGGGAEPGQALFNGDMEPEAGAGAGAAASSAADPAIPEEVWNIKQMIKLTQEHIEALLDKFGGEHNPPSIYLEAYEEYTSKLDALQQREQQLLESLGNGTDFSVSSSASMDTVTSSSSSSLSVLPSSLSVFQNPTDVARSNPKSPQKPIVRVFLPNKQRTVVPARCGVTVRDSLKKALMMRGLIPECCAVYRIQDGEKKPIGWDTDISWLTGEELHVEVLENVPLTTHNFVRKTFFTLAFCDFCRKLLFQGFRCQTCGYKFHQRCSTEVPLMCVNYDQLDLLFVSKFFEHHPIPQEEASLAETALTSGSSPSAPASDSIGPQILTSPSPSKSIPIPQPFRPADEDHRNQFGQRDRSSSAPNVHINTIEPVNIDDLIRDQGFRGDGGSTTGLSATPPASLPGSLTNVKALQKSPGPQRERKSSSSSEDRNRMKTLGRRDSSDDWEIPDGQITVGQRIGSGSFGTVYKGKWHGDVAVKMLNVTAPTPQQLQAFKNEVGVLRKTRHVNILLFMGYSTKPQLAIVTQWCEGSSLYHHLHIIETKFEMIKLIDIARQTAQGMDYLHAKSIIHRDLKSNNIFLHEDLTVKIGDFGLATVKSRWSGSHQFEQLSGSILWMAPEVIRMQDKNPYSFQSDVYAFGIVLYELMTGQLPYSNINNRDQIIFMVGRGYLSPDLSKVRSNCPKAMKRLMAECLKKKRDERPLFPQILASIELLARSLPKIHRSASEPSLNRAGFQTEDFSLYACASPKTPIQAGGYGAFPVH
In words: 33PanQinase enzyme assay, BRaf. The settings on record: ratio IC50(BRaf)/IC50(MKK4). The gist of the method:
(§1)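 Off-target selectivity is the ratio IC50(off-target)/IC50(MKK4), with IC50 values from least-squares fitting and single-point data as % residual activity. Reactions of enzyme/substrate mix, ATP and compound ran 60 min at 30° C before H3PO4 stop; ^33P incorporation read on a scintillation counter.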

The next experiment concerns the target JNK1 (Homo sapiens, UniProt P45983). Kind of experiment: 33PanQinase enzyme assay, JNK1. Further details: purchased ProQinase GmbH, Freiburg, Germany (33PanQinase Assay Service). As to conditions: ratio IC50(JNK1)/IC50(MKK4). In a few lines: as §1
In another experiment the target is T3, MKK7 (Homo sapiens, UniProt O14733).
T3 sequence (O14733 1-419): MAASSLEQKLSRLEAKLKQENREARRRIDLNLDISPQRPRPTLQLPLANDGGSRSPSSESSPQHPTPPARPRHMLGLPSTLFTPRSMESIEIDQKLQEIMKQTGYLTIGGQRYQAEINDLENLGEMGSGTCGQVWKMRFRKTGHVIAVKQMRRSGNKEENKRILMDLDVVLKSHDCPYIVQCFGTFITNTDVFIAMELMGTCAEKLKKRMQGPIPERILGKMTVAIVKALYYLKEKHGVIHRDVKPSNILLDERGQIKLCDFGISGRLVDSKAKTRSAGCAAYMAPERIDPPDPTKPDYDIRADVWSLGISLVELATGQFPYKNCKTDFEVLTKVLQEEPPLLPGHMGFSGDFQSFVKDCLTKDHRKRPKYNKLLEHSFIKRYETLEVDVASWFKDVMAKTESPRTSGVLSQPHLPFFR
In words: 33PanQinase enzyme assay, MKK7. Further details: purchased ProQinase GmbH, Freiburg, Germany (33PanQinase Assay Service). The settings on record: ratio IC50(MKK7)/IC50(MKK4). In a few lines: as §1

SMILES strings stand for the structures. pIC50: −log10 of the molar value.

Chain of JNK1 (P45983 whole entry): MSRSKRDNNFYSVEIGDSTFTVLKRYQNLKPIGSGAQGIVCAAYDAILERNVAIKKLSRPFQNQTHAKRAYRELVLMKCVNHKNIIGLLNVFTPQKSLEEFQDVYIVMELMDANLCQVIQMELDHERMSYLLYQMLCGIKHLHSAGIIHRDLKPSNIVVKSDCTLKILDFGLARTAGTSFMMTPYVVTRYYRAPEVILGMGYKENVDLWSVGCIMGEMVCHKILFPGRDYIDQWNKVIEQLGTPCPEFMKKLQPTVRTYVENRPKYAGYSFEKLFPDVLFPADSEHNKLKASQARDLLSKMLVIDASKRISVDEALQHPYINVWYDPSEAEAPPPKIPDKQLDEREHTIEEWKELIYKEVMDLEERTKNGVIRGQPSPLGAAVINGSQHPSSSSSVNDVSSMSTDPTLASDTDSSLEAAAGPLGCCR

What is called pIC50 is −log10 of the IC50, conventionally taken in molar units. Consider `CCCS(=O)(=O)Nc1c(F)ccc(C(=O)c2c[nH]c3ncc(-c4ccncc4Cl)cc23)c1F` [Example 173, N-(3-(5-(3-chloropyridin-4-yl)-1H-pyrrolo[2,3-b]pyridine-3-carbonyl)-2,6-difluorophenyl)propane-1-sulfonamide], for which the pIC50 on MKK4 is above 7.00. In addition, the “Selectivity Braf, IC50(off-target)/IC50(MKK4)” value (shortened to “Selectivity Braf”) on BRaf is “+++ (IC50(off-target)/IC50(MKK4) > 100)”. Also, the “Selectivity JNK1, IC50(off-target)/IC50(MKK4)” value (from here on “Selectivity JNK1”) at JNK1 is reported as “++ (100 ≥ IC50(off-target)/IC50(MKK4) > 10)”. Further, on MKK7, the “Selectivity IVIKK7, IC50(off-target)/IC50(MKK4)” value (“Selectivity IVIKK7” for short) is given as “+++ (IC50(off-target)/IC50(MKK4) > 100)”.

As to `CCCS(=O)(=O)Nc1ccc(F)c(C(=O)c2c[nH]c3ncc(N4CCCCC4)cc23)c1F` [Example 140], the negative logarithm of the IC50 (pIC50) at MKK4 is 5.00 to 6.00. In addition, the “Selectivity Braf” value at BRaf is listed as “◯ (3 ≥ IC50(off-target)/IC50(MKK4))”. For the same compound, the “Selectivity JNK1” value on JNK1 is reported as “◯ (3 ≥ IC50(off-target)/IC50(MKK4))”. The “Selectivity IVIKK7” value at MKK7 is reported as “++ (100 ≥ IC50(off-target)/IC50(MKK4) > 10)”.

As to `CCCS(=O)(=O)Nc1c(F)ccc(C(=O)c2c[nH]c3ncc(-c4cnc(N5CCC5)nc4)cc23)c1F` [Example 199, N-(3-(5-(2-(azetidin-1-yl)pyrimidin-5-yl)-1H-pyrrolo[2,3-b]pyridine-3-carbonyl)-2,6-difluorophenyl)propane-1-sulfonamide], on MKK4, the pIC50 was above 7.00. Also, the “Selectivity Braf” value on BRaf is reported as “++ (100 ≥ IC50(off-target)/IC50(MKK4) > 10)”. The “Selectivity JNK1” value on JNK1 is “++ (100 ≥ IC50(off-target)/IC50(MKK4) > 10)”. Moreover, the “Selectivity IVIKK7” value at MKK7 was “+++ (IC50(off-target)/IC50(MKK4) > 100)”.

For `Cc1cnccc1-c1cnc2[nH]cc(C(=O)c3ccc(F)c(NS(=O)(=O)CCC(F)(F)F)c3F)c2c1` [Example 172, N-(2,6-difluoro-3-(5-(3-methylpyridin-4-yl)-1H-pyrrolo[2,3-b]pyridine-3-carbonyl)phenyl)-3,3,3-trifluoropropane-1-sulfonamide], the pIC50 at MKK4 is above 7.00. For the same compound, the “Selectivity Braf” value at BRaf is “+++ (IC50(off-target)/IC50(MKK4) > 100)”. The “Selectivity JNK1” value at JNK1 is listed as “+++ (IC50(off-target)/IC50(MKK4) > 100)”. Besides, at MKK7, the “Selectivity IVIKK7” value is given as “+++ (IC50(off-target)/IC50(MKK4) > 100)”.

On to `CCCS(=O)(=O)Nc1c(F)ccc(C(=O)c2c[nH]c3ncc(-c4cnc(N5CCCC5)nc4)cc23)c1F` [Example 191, N-(2,6-difluoro-3-(5-(2-(pyrrolidin-1-yl)pyrimidin-5-yl)-1H-pyrrolo[2,3-b]pyridine-3-carbonyl)phenyl)propane-1-sulfonamide], for which the pIC50 at MKK4 was 6.00 to 7.00. In addition, the “Selectivity Braf” value on BRaf is recorded as “+++ (IC50(off-target)/IC50(MKK4) > 100)”. The “Selectivity JNK1” value on JNK1 is reported as “+++ (IC50(off-target)/IC50(MKK4) > 100)”. Also, the “Selectivity IVIKK7” value on MKK7 is “+++ (IC50(off-target)/IC50(MKK4) > 100)”.

With `O=C(c1cccc(NS(=O)(=O)Cc2ccccc2)c1F)c1c[nH]c2ncc(-c3cnc(C4CC4)nc3)cc12` [Example 131, N-(3-(5-(2-cyclopropylpyrimidin-5-yl)-1H-pyrrolo[2,3-b]pyridine-3-carbonyl)-2-fluorophenyl)-1-phenylmethanesulfonamide], the pIC50 on MKK4 is 6.00 to 7.00. For the same compound, the “Selectivity Braf” value on BRaf is reported as “++ (100 ≥ IC50(off-target)/IC50(MKK4) > 10)”. Moreover, at JNK1, the “Selectivity JNK1” value is given as “++ (100 ≥ IC50(off-target)/IC50(MKK4) > 10)”. In addition, at MKK7, the “Selectivity IVIKK7” value is “+++ (IC50(off-target)/IC50(MKK4) > 100)”.

On to `CCCS(=O)(=O)Nc1c(F)ccc(C(=O)c2c[nH]c3ncc(-c4ccnnc4)cc23)c1F` [Example 144, N-(2,6-difluoro-3-(5-(pyridazin-4-yl)-1H-pyrrolo[2,3-b]pyridine-3-carbonyl)phenyl)propane-1-sulfonamide], for which the pIC50 on MKK4 was above 7.00. In addition, the “Selectivity Braf” value at BRaf is on record as “++ (100 ≥ IC50(off-target)/IC50(MKK4) > 10)”. For the same compound, on JNK1, the “Selectivity JNK1” value was “+++ (IC50(off-target)/IC50(MKK4) > 100)”. Also, the “Selectivity IVIKK7” value at MKK7 was “+++ (IC50(off-target)/IC50(MKK4) > 100)”.

Turning to `CCCCS(=O)(=O)Nc1c(F)ccc(C(=O)c2c[nH]c3ncc(-c4ccc(F)cc4C)cc23)c1F` [Example 227, N-(2,6-difluoro-3-(5-(4-fluoro-2-methylphenyl)-1H-pyrrolo[2,3-b]pyridine-3-carbonyl)phenyl)butane-1-sulfonamide], the pIC50 on MKK4 was above 7.00. Further, on BRaf, the “Selectivity Braf” value is given as “+++ (IC50(off-target)/IC50(MKK4) > 100)”. On JNK1, the “Selectivity JNK1” value was “+++ (IC50(off-target)/IC50(MKK4) > 100)”. Besides, the “Selectivity IVIKK7” value at MKK7 is listed as “+++ (IC50(off-target)/IC50(MKK4) > 100)”.

In the case of `CCCS(=O)(=O)Nc1c(F)ccc(C(=O)c2c[nH]c3ncc(-c4cccc(C(=O)O)c4)cc23)c1F` [Example 223, 3-(3-(2,4-difluoro-3-(propylsulfonamido)benzoyl)-1H-pyrrolo[2,3-b]pyridin-5-yl)benzoic acid], the pIC50 at MKK4 is above 7.00. Also, the “Selectivity Braf” value on BRaf is listed as “+ (10 ≥ IC50(off-target)/IC50(MKK4) > 3)”. Besides, the “Selectivity JNK1” value on JNK1 is on record as “++ (100 ≥ IC50(off-target)/IC50(MKK4) > 10)”. In addition, the “Selectivity IVIKK7” value on MKK7 is recorded as “+++ (IC50(off-target)/IC50(MKK4) > 100)”.

Consider `COc1ncc(-c2cnc3[nH]cc(C(=O)c4cccc(NS(=O)(=O)Cc5ccccc5)c4F)c3c2)cn1` [Example 130, N-(2-fluoro-3-(5-(2-methoxypyrimidin-5-yl)-1H-pyrrolo[2,3-b]pyridine-3-carbonyl)phenyl)-1-phenylmethanesulfonamide], for which, on MKK4, the pIC50 is 6.00 to 7.00. Besides, the “Selectivity Braf” value on BRaf is recorded as “++ (100 ≥ IC50(off-target)/IC50(MKK4) > 10)”. Moreover, the “Selectivity JNK1” value on JNK1 was “++ (100 ≥ IC50(off-target)/IC50(MKK4) > 10)”. Further, the “Selectivity IVIKK7” value on MKK7 is “+++ (IC50(off-target)/IC50(MKK4) > 100)”.

`CCCS(=O)(=O)Nc1ccc(F)c(C(=O)c2c[nH]c3ncc(-c4ccc5ccccc5c4)cc23)c1F` [Example 99, N-(2,4-difluoro-3-(5-(naphthalen-2-yl)-1H-pyrrolo[2,3-b]pyridine-3-carbonyl)phenyl)propane-1-sulfonamide]: at MKK4, the pIC50 was 6.00 to 7.00. Also, the “Selectivity Braf” value at BRaf was “◯ (3 ≥ IC50(off-target)/IC50(MKK4))”. At JNK1, the “Selectivity JNK1” value is “◯ (3 ≥ IC50(off-target)/IC50(MKK4))”. Besides, the “Selectivity IVIKK7” value on MKK7 was “+++ (IC50(off-target)/IC50(MKK4) > 100)”.

Consider `CCCS(=O)(=O)Nc1ccc(F)c(C(=O)c2c[nH]c3ncc(-c4ccc(SC)cc4)cc23)c1F` [Example 55], for which the pIC50 at MKK4 is 6.00 to 7.00. Also, at BRaf, the “Selectivity Braf” value is “◯ (3 ≥ IC50(off-target)/IC50(MKK4))”. Further, the “Selectivity JNK1” value on JNK1 is “+ (10 ≥ IC50(off-target)/IC50(MKK4) > 3)”. The “Selectivity IVIKK7” value at MKK7 is listed as “+++ (IC50(off-target)/IC50(MKK4) > 100)”.

On to `CCCS(=O)(=O)Nc1c(F)ccc(C(=O)c2c[nH]c3ncc(-c4ccc(O)cc4Cl)cc23)c1F` [Example 152, N-(3-(5-(2-chloro-4-hydroxyphenyl)-1H-pyrrolo[2,3-b]pyridine-3-carbonyl)-2,6-difluorophenyl)propane-1-sulfonamide], for which, on MKK4, the pIC50 was above 7.00. Further, the “Selectivity Braf” value on BRaf is given as “+++ (IC50(off-target)/IC50(MKK4) > 100)”. Further, the “Selectivity JNK1” value on JNK1 is listed as “++ (100 ≥ IC50(off-target)/IC50(MKK4) > 10)”. Moreover, the “Selectivity IVIKK7” value on MKK7 is reported as “+++ (IC50(off-target)/IC50(MKK4) > 100)”.

In the case of `CCCS(=O)(=O)Nc1ccc(F)c(C(=O)c2c[nH]c3ncc(-c4cncnc4)cc23)c1F` [Example 91, N-(2,4-difluoro-3-(5-(pyrimidin-5-yl)-1H-pyrrolo[2,3-b]pyridine-3-carbonyl)phenyl)propane-1-sulfonamide], the pIC50 on MKK4 was 5.00 to 6.00. Further, the “Selectivity Braf” value on BRaf is “◯ (3 ≥ IC50(off-target)/IC50(MKK4))”. Further, the “Selectivity JNK1” value at JNK1 is “◯ (3 ≥ IC50(off-target)/IC50(MKK4))”. For the same compound, the “Selectivity IVIKK7” value on MKK7 is recorded as “++ (100 ≥ IC50(off-target)/IC50(MKK4) > 10)”.
